Laboratory results: patent publication EP4585599A1, “NITROGEN-CONTAINING FUSED RING COMPOUND, INTERMEDIATE THEREOF, PREPARATION METHOD THEREFOR AND USE THEREOF” (Hangzhou Synrx Therapeutics Biomedical Technology Co., Ltd., priority 2022, dated 2024)
Where two headings read alike, the source gives them in different places.

Tests used:
cells = conditions: Homo sapiens, DLD-1, 240 h
[1] = biological target: T1, helicase domain of the Pol θ protein (Homo sapiens, UniProt O75417); assay: Biochemical Activity Assay (ADP Glo Assay) of Pol θ inhibitor, ATPase activity
T1 construct: The helicase domain of the Pol θ protein was purified from insect protein expression system; made in house; host or cells: insect protein expression system

[2] = read-out: Cell viability assay IC50 (nM), CTG assay, CellTiter Glo, read on Day 10, cell line not given
[3] = ADP-Glo assay, ATPase activity of Pol θ helicase domain, ssDNA substrate, read-out: Biochemical assay IC50
[4] = read-out: Cell viability assay IC50 (nM)
[5] = read-out: Cell viability assay IC50 (nM), CTG on Day 10, cell line not given (method: DLD1 and DLD1^-/- cells)
[6] = ADP-Glo, ssDNA substrate, 60 min at room temperature, read-out: Biochemical assay IC50

T1 sequence (O75417 102-554 limits assumed): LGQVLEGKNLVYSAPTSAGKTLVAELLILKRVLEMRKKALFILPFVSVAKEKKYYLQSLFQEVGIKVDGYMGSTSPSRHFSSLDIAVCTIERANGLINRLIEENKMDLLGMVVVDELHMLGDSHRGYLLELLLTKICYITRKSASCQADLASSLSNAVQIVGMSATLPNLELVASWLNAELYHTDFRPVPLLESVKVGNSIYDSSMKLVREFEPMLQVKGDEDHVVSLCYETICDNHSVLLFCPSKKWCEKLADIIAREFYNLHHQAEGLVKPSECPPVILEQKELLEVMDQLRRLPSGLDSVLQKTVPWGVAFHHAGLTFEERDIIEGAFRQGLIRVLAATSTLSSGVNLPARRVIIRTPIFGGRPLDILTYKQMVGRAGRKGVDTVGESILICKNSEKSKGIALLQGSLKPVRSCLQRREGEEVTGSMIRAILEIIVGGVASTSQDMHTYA

| SMILES | IC50 [1, 3] | IC50 [1, 6] | IC50 (cells; [2]) | IC50 (cells; [4]) | IC50 ([1]; Biochemical assay IC50 (nM)) | IC50 (cells; [5]) |
| --- | --- | --- | --- | --- | --- | --- |
| COc1cnc(Cl)cc1-c1cc(C)ncc1C(=O)Nc1nc2ncc(N3CC4(CC(O)C4)C3)nc2s1 [Example 133] | 6.92 nM |  | 26.1 nM |  |  |  |
| COc1cnc(Cl)cc1-c1cc(C)ncc1C(=O)Nc1nc2nc(OC)c(-c3c(C)cnn3C)cc2s1 [Example 177, 2'-chloro-N-(6-(1,4-dimethyl-1H-parazol-5-yl)-5-methoxythiazolo[4,5-b]pyridin-2-yl)-5' -methoxy-6-methyl-[4,4'-bipyridine]-3-carboxamide] |  |  |  | 121 nM | 13.6 nM |  |
| COc1cnc(Cl)cc1-c1cc(C)ncc1C(=O)Nc1nc2ccc(-c3c(C)nnn3C)cc2s1 [Example 222, 2'-chloro-N-(6-(1,4-dimethyl-1H-1,2,3-triazol-5-yl)benzo[d]lthiazol-2-yl)-5'-methoxy-6-methyl-[4.4'-bipyridine]-3-carboxamide] |  |  |  | 9.62 nM | 4.36 nM |  |
| COc1cccc(F)c1-c1cc(C)ncc1C(=O)Nc1nc2ccc([C@H]3CC[C@@H](O)CC3)nc2s1 [Example 31] | 66.4 nM | 50 to 200 nM |  | > 1000 nM |  |  |
| COc1cnc(Cl)cc1-c1cc(C)ncc1C(=O)Nc1nc2ccc(N3CC[C@@H](O)C[C@H]3C)nc2s1 [Example 135] | 5.41 nM |  | 19.2 nM |  |  |  |
| COc1cnc(Cl)cc1-c1cc(C)ncc1C(=O)Nc1nc2ccc(N3CCC=CC3=O)nc2s1 [Example 138] | 7.58 nM |  | 26.1 nM |  |  |  |
| [2H]C1(O)CC=C(c2cc3sc(NC(=O)c4cnc(C)cc4-c4cc(Cl)ncc4OC)nc3cn2)CC1 (centres unmarked) [Example 111, 2'-chloro-N-(6-(4-hydroxycyclohex-1-en-1-yl-4-d)thiazolo[4,5-c]pyridin-2-yl)-5'-methox y-6-methyl-[4,4'-bipyridine]-3-carboxamide] | 3.78 nM | < 50 nM | 13.1 nM |  |  | < 100 nM |
| COc1cnc(Cl)cc1-c1cc(C)ncc1C(=O)Nc1nc2ncc(C3CCOCC3)cc2s1 [Example 37] | 4.36 nM | < 50 nM | 44.7 nM |  |  | < 100 nM |
| COc1cc(P(C)(C)=O)ccc1-c1cc(C)ncc1C(=O)Nc1nc2cnc(-c3c(C)cnn3C)cc2s1 [Example 153] | 24.4 nM |  | 545 nM |  |  |  |
| COc1cnc(Cl)cc1-c1cc(C)ncc1C(=O)Nc1nc2ccc(-c3c(C)nnn3C)nc2s1 [Example 147, 2'-chloro-N-(5-(1,4-dimethyl-1H-1,2,3-triazol-5-yl)thiazolo[5,4-b]pyridin-2-yl)-5'-methoxy-6-methyl-[4,4'-bipyridine]-3-carboxamide] | 17.6 nM |  | 82.5 nM |  |  |  |
| COc1cnc(Cl)cc1-c1cc(C)ncc1C(=O)Nc1nc2ncc(C3=CC(O)CC3)cc2s1 (centres unmarked) [Example 79] | 3.35 nM | < 50 nM | 92.6 nM |  |  | < 100 nM |
| COc1cnc(Cl)cc1-c1cc(C)ncc1C(=O)Nc1nc2ncc(NS(C)(=O)=O)cc2s1 [Example 63] | 5.58 nM | < 50 nM | 1710 nM |  |  | > 1000 nM |
| COc1cnc(Cl)cc1-c1cc(C)ncc1C(=O)Nc1nc2ccc([C@H]3CC[C@H](O)CC3)nc2s1 [Example 29] | 12.9 nM | < 50 nM | 131 nM |  |  | 100 to 500 nM |
| COc1cnc(Cl)cc1-c1cnccc1C(=O)Nc1nc2ccc(C3=CCC(O)CC3)nc2s1 (centres unmarked) [Example 4] | 19.1 nM | < 50 nM | 736 nM |  |  | 500 to 1000 nM |
| COc1cnc(Cl)cc1-c1cc(C)ncc1C(=O)Nc1nc2ncc(S(C)(=O)=O)cc2s1 [Example 94, 2'-chloro-5'-methoxy-6-methyl-N-(6-(methylsulfonyl)thiazolo[4,5-b]pyridin-2-yl)-[4,4'-bipyridine]-3-carboxamide] | 6.98 nM | < 50 nM | 631 nM |  |  | 500 to 1000 nM |
| COc1cnc(Cl)cc1-c1cc(C)ncc1C(=O)Nc1nc2cnc(N3CCC(NS(C)(=O)=O)CC3)cc2s1 [Example 195] |  |  |  | 34.2 nM | 6.18 nM |  |
| COc1cnc(Cl)cc1-c1cc2cncn2cc1C(=O)Nc1nc2cnc(N3CCC(O)CC3)cc2s1 [Example 121] | 51.9 nM |  | 2510 nM |  |  |  |
| COc1cnc(Cl)cc1-c1cc(C)ncc1C(=O)Nc1nc2ccc(C3CCN(C)CC3)nc2s1 [Example 36] | 236 nM | 200 to 500 nM | 584 nM |  |  | 500 to 1000 nM |
| COc1cnc(Cl)cc1-c1cc(C)ncc1C(=O)Nc1nc2c(CO)cc(-c3c(C)cnn3C)cc2s1 [Example 170] | 7.13 nM |  | 825 nM |  |  |  |
| COc1cnc(Cl)cc1-c1cc(C)ncc1C(=O)Nc1nc2ncc(N3CC4CC3CC4O)cc2s1 (centres unmarked) [Example 62] | 16.9 nM | < 50 nM | 631 nM |  |  | 100 to 500 nM |
| COc1cnc(Cl)cc1-c1cc(C)ncc1C(=O)Nc1nc2ncc(N3CCC(CO)C3)cc2s1 (centres unmarked) [Example 60] | 9.89 nM | < 50 nM | 501 nM |  |  | 100 to 500 nM |
| COc1cnc(Cl)cc1-c1cc(C)ncc1C(=O)Nc1nc2cc(F)c(N3CCC(O)CC3)cc2s1 [Example 119] | 5.46 nM |  | 10.7 nM |  |  |  |
| COc1cnc(Cl)cc1-c1cc(C)ncc1C(=O)Nc1nc2cnc(-c3c(C)cnn3C)nc2s1 [Example 157] | 5.08 nM |  | 32.9 nM |  |  |  |
| COc1cnc(Cl)cc1-c1cc(C)ncc1C(=O)Nc1nc2ccc(-c3c(C)cnn3C)nc2s1 [Example 80] | 9.12 nM | < 50 nM | 30.3 nM |  |  | < 100 nM |
| COc1cnc(Cl)cc1-c1cc(C)ncc1C(=O)Nc1nc2c(C#N)cc(-c3c(C)cnn3C)cc2s1 [Example 166] | 25.1 nM |  | 68.1 nM |  |  |  |
| COc1cnc(Cl)cc1-c1cc(C)ncc1C(=O)Nc1nc2ncc(N3CCCC(O)CC3)cc2s1 (centres unmarked) [Example 64] | 25.4 nM | < 50 nM | 681 nM |  |  | 500 to 1000 nM |

Further lines, with some results ahead:

| IC50 [1, 3] | IC50 [1, 6] | SMILES | IC50 (cells; [2]) | IC50 (cells; [4]) | IC50 ([1]; Biochemical assay IC50 (nM)) | IC50 (cells; [5]) |
| --- | --- | --- | --- | --- | --- | --- |
| 2.96 nM | < 50 nM | COc1cnc(Cl)cc1-c1cc(C)ncc1C(=O)Nc1nc2ncc(N3CCC(CO)CC3)cc2s1 [Example 98, 2'-chloro-N-(6-(4-(hydroxymethyl)piperidin-1-yl)thiazolo[4,5-b]pyridin-2-yl)-5'-methox y-6-methyl-[4,4'-bipyridine]-3-carboxamide] | 10.6 nM |  |  | < 100 nM |
| 1.88 nM | < 50 nM | COc1cnc(Cl)cc1-c1cc(C)ncc1C(=O)Nc1nc2cnc(C3=CCC(O)CC3)nc2s1 (centres unmarked) [Example 91, 2'-chloro-N-(5-(4-hydroxycyclohex-1-en-1-yl)thiazolo[5,4-d]pyrimidin-2-yl)-5'-methoxy-6-methyl-[4,4'-bipyridine]-3-carboxamide] | 11.7 nM |  |  | < 100 nM |
| 1.93 nM |  | COc1cnc(Cl)cc1-c1cc(C)ncc1C(=O)Nc1nc2cnc(-c3nnn(C)n3)cc2s1 [Example 209] | 6.82 nM |  |  |  |
| 1.67 nM | < 50 nM | CNC1CCN(c2cnc3nc(NC(=O)c4cnc(C)cc4-c4cc(Cl)ncc4OC)sc3c2)CC1 [Example 73] | 209 nM |  |  | 100 to 500 nM |
| 2.51 nM | < 50 nM | COc1cnc(Cl)cc1-c1cc(C)ncc1C(=O)Nc1nc2ncc(N3CCC(NC(C)=O)CC3)cc2s1 [Example 57, N-(6-(4-acetaminopiperidin-1-yl)thiazolo[4,5-b]pyridin-2-yl)-2'-chloro-5'-methoxy-6-me thyl-[4,4'-bipyridine]-3-carboxamide] | 126 nM |  |  | 100 to 500 nM |
| 1.96 nM | < 50 nM | COc1cnc(Cl)c(F)c1-c1cc(C)ncc1C(=O)Nc1nc2ccc(N3CCC(O)CC3)nc2s1 [Example 53] | 9.38 nM |  |  | < 100 nM |
| 1.15 nM | < 50 nM | COc1cnc(Cl)cc1-c1cc(C)ncc1C(=O)Nc1nc2ncc(C3(O)CCC4(CC3)COC4)cc2s1 [Example 88, 2'-chloro-N-(6-(7-hydroxy-2-oxaspiro[3.5]non-7-yl)thiazolo[4,5-b]pyridin-2-yl)-5'-methoxy-6-methyl-[4,4'-bipyridine]-3-carboxamide] | 52.1 nM |  |  | < 100 nM |
| 2.89 nM | < 50 nM | COc1cnc(Cl)cc1-c1cc(C)ncc1C(=O)Nc1nc2ncc(C3=CCC4(CC3)COC4)cc2s1 [Example 78] | 8.21 nM |  |  | < 100 nM |
| 2.51 nM | < 50 nM | COc1cnc(Cl)cc1-c1cc(C)ncc1C(=O)Nc1nc2ncc(-c3ccc(N4CCNCC4)cc3)cc2s1 [Example 81] | 30.4 nM |  |  | < 100 nM |
| 3.21 nM | < 50 nM | COc1cnc(Cl)cc1-c1cc(C)ncc1C(=O)Nc1nc2cnc(C3=CC[C@@H](O)CC3)cc2s1 [Example 115, (S) -2'-chloro-N-(6-(4-hydroxycyclohex-1-en-1-yl)thiazolo[4,5-c]pyridin-2-yl)-5'-methoxy-6-methyl-[4,4'-bipyridine]-3-c arboxamide] | 2.61 nM |  |  | < 100 nM |
| 3.15 nM | < 50 nM | COc1cnc(Cl)cc1-c1cc(C)ncc1C(=O)Nc1nc2ncc(N3CCC(N(C)C)CC3)cc2s1 [Example 72] | 190 nM |  |  | 100 to 500 nM |
| 1.88 nM | < 50 nM | [2H]COc1cnc(Cl)cc1-c1cc(C)ncc1C(=O)Nc1nc2cnc(C3=CCC(O)CC3)cc2s1 (centres unmarked) [Example 108, 2'-chloro-N-(6-(4-hydroxycyclohex-1-en-1-yl)thiazolo[4,5-c]pyridin-2-yl)-5'-deuteromet hoxy-6-methyl-[4,4'-bipyridine]-3-carboxamide] | 8.79 nM |  |  | < 100 nM |
| 2.36 nM |  | COc1cnc(Cl)cc1-c1cc(C)ncc1C(=O)Nc1nc2cnc(-c3c(F)cnn3C)cc2s1 [Example 154] | 17.8 nM |  |  |  |
